Source: US11632954B2, “Polymorphs of 5-fluoro-4-imino-3-methyl-1 -tosyl-3,4-dihydropyrimidin-2-one” (ADAMA MAKHTESHIM LTD., priority 2017, dated 2023)
Blank lines part the entries; values can stand above or below the compound they belong to.

Tests used:
Type in all cases: physicochemical
[1] = Relative thermodynamic stability of Forms I and II: competitive slurry experiments; settings: for Result (XRPD): seeded with Form I + Form II after 4 h, analyzed wet
Description: (§1) The relative thermodynamic stability of the polymorphs was determined by slurry experiments at RT and 5° C. […] The stability was further investigated at 5° C. and in addition, another experiment was performed at MEK at RT. MEK was chosen as suspending media because that was the only solvent where Form II was formed when slurrying the starting material. […] The experiment at 5° C. in TBME was actually carried out only as a control.

[2] = Solid-state hygroscopicity / stability against hydration
[3] = Critical water activity: seeded suspension equilibration of Hydrate vs anhydrous Forms I and II in 2-PrOH/water and THF/water; settings: for Result (XRPD): analyzed wet
Description: The critical water activity between the Hydrate and anhydrous Forms I and II was attempted to be determined at room temperature in 2-PrOH/water and THF/water mixtures. […] After two additional days of stirring at RT, the solid was separated from the liquid by centrifuge filtering.
In order to clarify the root cause of the surprising results regarding the critical water activities, three further experiments were performed. The slurries at water activities of 0.5 and 0.7 were repeated using freshly prepared solvent mixtures and the suspension equilibration at a water activity of 0.7 was also performed in 2-PrOH/water mixture. The formation of thick suspension in 2-PrOH/water mixtures was experienced again; the initially obtained thick suspension turned into a well-stirred slurry upon one day of stirring. Then it was seeded with the three forms and the solid was isolated after additional two days of stirring.

[4] = TG-FTIR thermogram, beginning of decomposition; settings: N2 atmosphere; 10° C./min, 25 to 300° C.
Description: FT-Raman Spectroscopy: Bruker Multi-RAM with OPUS 6.5 software; Nd:YAG 1064-nm excitation, Ge detector, 3500-50 cm-1 range; typical measurement conditions: 300 mW nominal laser power, 64 scans, 2 cm-1 resolution; samples pressed into the cavity of aluminum sample holders TG-FTIR: Netzsch Thermo-Microbalance TG 209 with Bruker FT-IR Spectrometer Vector 22; aluminum crucible (with microhole); N2 atmosphere; 10° C./min heating rate, from 25 to 300° C.

[5] = Solubility in suspending medium; settings: in MEK
Description: as §1

[6] = Solvate formation in suspension crystallization at RT
Description: (§2) 1) About 100 mg of 5-fluoro-4-imino-3-methyl-1-tosyl-3,4-dihydropyrimidin-2(1H)-one was suspended in 1.0 ml of 2-PrOH previously dried over 4 Å molecular sieves and the suspension was stirred for 11 d at RT and filtered through a 0.2-μm PTFE centrifuge filter and analyzed without drying, or dried in dry N2 stream at RT for 1 h.
as §2, with “2)” for “1)”, “tert-butyl methyl ether (TBME)” for “2-PrOH”, “RT,” for “RT and”, “drying.” for “drying, or dried in dry N2 stream at RT for 1 h.”
3) About 100 mg of 5-fluoro-4-imino-3-methyl-1-tosyl-3,4-dihydropyrimidin-2(1H)-one was suspended in 1.0 ml of toluene previously dried over 4 Å molecular sieves and the suspension was stirred for 11 d at RT, filtered through a 0.2-μm PTFE centrifuge filter and analyzed without drying.
Form II was prepared by suspension crystallization. About 120 mg of 5-fluoro-4-imino-3-methyl-1-tosyl-3,4-dihydropyrimidin-2(1H)-one was suspended in 0.8 ml of methyl ethyl ketone (MEK) previously dried over 4 Å molecular sieves and the suspension was stirred for 11 d at room temperature and filtered through a 0.2-μm PTFE centrifuge filter. The solid was allowed to dry under ambient conditions for 1 d.

[7] = Dehydration of the Hydrate, DSC in an open pan
Description: DSC: TA Instruments DSC Q2000; hermetically closed gold crucible; N2 atmosphere; 10° C./min heating rate, from 20 to 190° C. The melting point is understood as the peak onset.
1) Measuring by DSC in an open pan, the water of crystallization evaporates in the temperature range of 20-100° C. Then a sharp endothermic event due to melting follows in the thermogram at 159° C. (FIG. 10).

SMILES: Cc1ccc(S(=O)(=O)n2cc(F)c(=N)n(C)c2=O)cc1 [Form I, 5-fluoro-4-imino-3-methyl-1-tosyl-3,4-dihydropyrimidin-2(1H)-one]
relative stability vs Form II in competitive slurry ([1]; TBME at 5° C.): unequivocally more stable than Form II | thermodynamic stability vs polymorph Form II ([1]; at 5° C. and above): thermodynamically more stable than polymorph Form II | relative thermodynamic stability vs Form II ([1]; water activities of 0.1 and 0.3, RT): more stable | hygroscopicity [2]: non-hygroscopic | kinetic stability against hydration ([2]; at higher relative humidity): high kinetic stability against hydration | relative thermodynamic stability among the three forms suspended ([3]; water activity of 0.3 and below, RT): thermodynamically most stable | thermodynamic stability vs the hydrate form ([3]; water activity of 0.3 or less at room temperature): thermodynamically more stable than the hydrate form | decomposition beginning at a temperature (TG-FTIR) [4]: greater than 210 °C

SMILES: Cc1ccc(S(=O)(=O)n2cc(F)c(=N)n(C)c2=O)cc1 [Form II, 5-fluoro-4-imino-3-methyl-1-tosyl-3,4-dihydropyrimidin-2(1H)-one]
relative thermodynamic stability among the three forms suspended ([3]; water activity of 0.7, RT (Table 1), patent assumes this finding untrue): more stable | decomposition beginning at a temperature (TG-FTIR) [4]: greater than 210 °C

SMILES: Cc1ccc(S(=O)(=O)n2cc(F)c(=N)n(C)c2=O)cc1 [PP539-P1, 5-fluoro-4-imino-3-methyl-1-tosyl-3,4-dihydropyrimidin-2(1H)-one]
Result (XRPD) ([1]; MEK (dry), 5° C.): Form S9 + Form I | Result (XRPD) ([1]; MEK (dry), 22° C.): Form I + Form II | Result (XRPD) ([1]; TBME (dry), 5° C.): Form I | solubility [5]: rather high | formation of thermodynamically stable solvates ([6]; with MEK at RT, Form II formed): does not form thermodynamically stable solvates | formation of thermodynamically stable solvates ([6]; with toluene, 2-PrOH and TBME at RT, Form I formed): does not form thermodynamically stable solvates | Result (XRPD) ([3]; 2PrOH/water = 89.6/10.4, aw 0.7, seeded with HH + Form I + Form II after 1 d): HH″ + traces | Result (XRPD) ([3]; 2PrOH/water = 94.7/5.3, aw 0.5, RT, seeded with HH + Form I + Form II after 3 d): HH′ | Result (XRPD) ([3]; 2PrOH/water = 97.5/2.5, aw 0.3, RT, seeded with HH + Form I + Form II after 3 d): Form I | Result (XRPD) ([3]; 2PrOH/water = 99.3/0.7, aw 0.1, RT, seeded with HH + Form I + Form II after 3 d, 2 d more stirring): Form I | Result (XRPD) ([3]; THF/water = 79.7/21.3, aw 0.9, RT, seeded with HH + Form I + Form II after 3 d): HH″ | Result (XRPD) ([3]; THF/water = 96.4/3.6, aw 0.7, RT, seeded with HH + Form I + Form II after 3 d): Form II | Result (XRPD) ([3]; repeat, fresh solvent, 2PrOH/water = 94.7/5.3, aw 0.5, seeded with HH + Form I + Form II after 1 d): HH″ + some | Result (XRPD) ([3]; repeat, fresh solvent, THF/water = 96.4/3.6, aw 0.7, seeded with HH + Form I + Form II after 1 d): HH′

SMILES: Cc1ccc(S(=O)(=O)n2cc(F)c(=N)n(C)c2=O)cc1 [Hydrate, 5-fluoro-4-imino-3-methyl-1-tosyl-3,4-dihydropyrimidin-2(1H)-one]
temperature range in which the water of crystallization evaporates [7]: 20-100 °C | form resulting from dehydration ([7]; melting at 159° C. coincides with Form I): anhydrous Form I | relative thermodynamic stability among the three forms suspended ([3]; water activity of 0.5 and 0.9, RT (Table 1)): more stable | relative stability vs Form I and Form II (ultimate finding) ([3]; water activity of 0.5 and higher at RT): more stable than the two anhydrous forms | decomposition beginning at a temperature (TG-FTIR) [4]: greater than 190 °C

The next lines start with the values.

decomposition beginning at a temperature (TG-FTIR) [4]: greater than 200 °C
SMILES: Cc1ccc(S(=O)(=O)n2cc(F)c(=N)n(C)c2=O)cc1 [Form S1, 5-fluoro-4-imino-3-methyl-1-tosyl-3,4-dihydropyrimidin-2(1H)-one]

decomposition beginning at a temperature (TG-FTIR) [4]: greater than 180 °C
SMILES: Cc1ccc(S(=O)(=O)n2cc(F)c(=N)n(C)c2=O)cc1 [Form S5, 5-fluoro-4-imino-3-methyl-1-tosyl-3,4-dihydropyrimidin-2(1H)-one]

decomposition beginning at a temperature (TG-FTIR) [4]: greater than 180 °C
SMILES: Cc1ccc(S(=O)(=O)n2cc(F)c(=N)n(C)c2=O)cc1 [Form S8, 5-fluoro-4-imino-3-methyl-1-tosyl-3,4-dihydropyrimidin-2(1H)-one]
